{"source": "patent US4196205A", "about": "“3-Acetoxymethyl-7-(iminoacetamido)-cephalosporanic acid derivatives” (priority 1976, dated 1980)", "assay_in_all_cases": "MIC, dilution in liquid medium", "assay_type_in_all_cases": "cell-based", "key": {"[1]": {"test_system": "Bacillus subtilis ATCC 6 633", "conditions": "Bacillus subtilis", "experimental": "(§1) The method used was a dilution of a liquid medium where a series of tubes received the same quantity of a sterile nutritive media and increasing doses of the test compounds were placed therein. Then each tube was seeded with a bacterial strain and was incubated for 24 to 48 hours at 37° C. in an oven. The increasing inhibition was determined by transillumination to determine the minimum inhibiting concentration (MIC in […]) and the results are reported in the following Tables."}, "[2]": {"test_system": "Escherichia Coli Exp. TO26 B6", "conditions": "Escherichia coli", "experimental": "as §1"}, "[3]": {"test_system": "Escherichia Coli Resistant Gentamicine, Tobramycine R 55 123 D", "conditions": "Escherichia coli", "experimental": "as §1"}, "[4]": {"test_system": "Escherichia Coli Resistant Tetracycline ATCC 11 303 = UC 1261", "conditions": "Escherichia coli, read-out: M.I.C.", "experimental": "as §1"}, "[5]": {"test_system": "Escherichia Coli Sensible Tetracycline ATCC 9 637 = 1020", "conditions": "Escherichia coli", "experimental": "as §1"}, "[6]": {"test_system": "Klebsiella pneumoniae 2 536 Resistant Gentamicine", "conditions": "Klebsiella pneumoniae", "experimental": "as §1"}, "[7]": {"test_system": "Klebsiella pneumoniae Exp. 52 145", "conditions": "Klebsiella pneumoniae, read-out: M.I.C.", "experimental": "as §1"}, "[8]": {"test_system": "Proteus vulgaris (indol+) A 232", "conditions": "Proteus vulgaris, 24 h", "experimental": "as §1"}, "[9]": {"test_system": "Providencia Du 48", "conditions": "Providencia", "experimental": "as §1"}, "[10]": {"test_system": "Pseudomonas 3 935 Exp. SG", "conditions": "Pseudomonas, 3935EXP.SG", "experimental": "as §1"}, "[11]": {"test_system": "Salmonella typhimurium 420", "conditions": "Salmonella enterica, TYPHIMURIUM", "experimental": "as §1"}, "[12]": {"test_system": "Serratia Resistant Gentamicine 2 532", "experimental": "as §1"}, "[13]": {"test_system": "Staphylococcus aureus ATCC 5 638 Pen-Sensible = UC 1061", "experimental": "as §1"}, "[14]": {"test_system": "Staphylococcus aureus Co 15 Resistant Cephalexine", "experimental": "as §1"}, "[15]": {"test_system": "Staphylococcus aureus UC 1 128 Pen-Resistant", "conditions": "Staphylococcus aureus", "experimental": "as §1"}, "[16]": {"test_system": "Staphylococcus aureus exp. n° 54 146", "conditions": "Staphylococcus aureus", "experimental": "as §1"}, "[17]": {"test_system": "Streptococcus faecalis 5 432", "experimental": "as §1"}, "[18]": {"test_system": "Streptococcus pyogenes A 561", "conditions": "Streptococcus pyogenes, read-out: M.I.C.", "experimental": "as §1"}}, "note": "Read-outs that look alike come from different tables or passages of the source."}
{"molecule": "C=CCO/N=C(\\C(=O)N[C@@H]1C(=O)N2C(C(=O)O)=C(COC(C)=O)CS[C@H]12)c1csc(N)n1", "note": "[Example 9, 3-acetoxymethyl-7-[2-(2-amino-4-thiazolyl)-2-(2-propenyl)oxyiminoacetamido]-ceph-3-eme-4-carboxylic acid]", "values": [{"measurement": "MIC", "setting": "[1]; ATCC6, 24 h, 24 H", "result": 1, "unit": "µg/mL"}, {"measurement": "MIC", "setting": "[1]; ATCC6, 48 h, 48 H", "result": 1, "unit": "µg/mL"}, {"measurement": "MIC", "setting": "[2]; 24 h", "result": 1, "unit": "µg/mL"}, {"measurement": "MIC", "setting": "[2]; 48 h", "result": 1, "unit": "µg/mL"}, {"measurement": "MIC", "setting": "[3]; 24 h", "result": 1, "unit": "µg/mL"}, {"measurement": "MIC", "setting": "[3]; 48 h", "result": 1, "unit": "µg/mL"}, {"measurement": "MIC", "setting": "[4]; 24 h", "result": 0.1, "unit": "µg/mL"}, {"measurement": "MIC", "setting": "[4]; 48 h", "result": 0.1, "unit": "µg/mL"}, {"measurement": "MIC", "setting": "[5]; ATCC9, 24 h, 24 H", "result": 1, "unit": "µg/mL"}, {"measurement": "MIC", "setting": "[5]; ATCC9, 48 h, 48 H", "result": 1, "unit": "µg/mL"}, {"measurement": "MIC", "setting": "[6]; 24 h", "result": 2, "unit": "µg/mL"}, {"measurement": "MIC", "setting": "[6]; 48 h", "result": 5, "unit": "µg/mL"}, {"measurement": "MIC", "setting": "[7]; EXP.52145, 24 h, 24 H", "result": 0.05, "unit": "µg/mL"}, {"measurement": "MIC", "setting": "[7]; EXP.52145, 48 h, 48 H", "result": 0.1, "unit": "µg/mL"}, {"measurement": "MIC", "setting": "[8]", "result": 2, "unit": "µg/mL"}, {"measurement": "MIC", "setting": "[9]; DU48, 24 h, 24 H", "result": 3, "unit": "µg/mL"}, {"measurement": "MIC", "setting": "[9]; DU48, 48 h, 48 H", "result": 5, "unit": "µg/mL"}, {"measurement": "MIC", "setting": "[10]; 24 h", "result": 20, "unit": "µg/mL"}, {"measurement": "MIC", "setting": "[10]; 48 h", "result": 20, "unit": "µg/mL"}, {"measurement": "MIC", "setting": "[11]; 24 h", "result": 1, "unit": "µg/mL"}, {"measurement": "MIC", "setting": "[11]; 48 h, read-out: M.I.C.", "result": 10, "unit": "µg/mL"}, {"measurement": "MIC", "setting": "[12]; 24 h, read-out: M.I.C.", "result": 0.4, "unit": "µg/mL"}, {"measurement": "MIC", "setting": "[12]; 48 h", "result": 1, "unit": "µg/mL"}, {"measurement": "MIC", "setting": "[13]; 24 h", "result": 1, "unit": "µg/mL"}, {"measurement": "MIC", "setting": "[13]; 48 h", "result": 2, "unit": "µg/mL"}, {"measurement": "MIC", "setting": "[14]; 24 h, read-out: M.I.C.", "result": 10, "unit": "µg/mL"}, {"measurement": "MIC", "setting": "[14]; 48 h", "result": 20, "unit": "µg/mL"}, {"measurement": "MIC", "setting": "[15]; UC1, 24 h, 24 H", "result": 2, "unit": "µg/mL"}, {"measurement": "MIC", "setting": "[15]; UC1, 48 h, 48 H", "result": 2, "unit": "µg/mL"}, {"measurement": "MIC", "setting": "[16]; 24 h", "result": 2, "unit": "µg/mL"}, {"measurement": "MIC", "setting": "[16]; 48 h", "result": 2, "unit": "µg/mL"}, {"measurement": "MIC", "setting": "[17]; Enterococcus faecalis, 5432, 24 h, 24 H", "result": 2, "unit": "µg/mL"}, {"measurement": "MIC", "setting": "[17]; Enterococcus faecalis, 5432, 48 h, read-out: M.I.C.", "result": 10, "unit": "µg/mL"}, {"measurement": "MIC", "setting": "[18]; A561, 24 h, 24 H", "result": 0.02, "unit": "µg/mL"}, {"measurement": "MIC", "setting": "[18]; A561, 48 h, 48 H", "result": 0.02, "unit": "µg/mL"}]}
